One test addresses T1, RIPK1 (Mus musculus, UniProt Q60855).
T1 construct: endogenous in cells; host or cells: immortalized mouse embryonic fibroblasts (MEFs, C57Bl6/J)
T1 sequence (Q60855 1-656): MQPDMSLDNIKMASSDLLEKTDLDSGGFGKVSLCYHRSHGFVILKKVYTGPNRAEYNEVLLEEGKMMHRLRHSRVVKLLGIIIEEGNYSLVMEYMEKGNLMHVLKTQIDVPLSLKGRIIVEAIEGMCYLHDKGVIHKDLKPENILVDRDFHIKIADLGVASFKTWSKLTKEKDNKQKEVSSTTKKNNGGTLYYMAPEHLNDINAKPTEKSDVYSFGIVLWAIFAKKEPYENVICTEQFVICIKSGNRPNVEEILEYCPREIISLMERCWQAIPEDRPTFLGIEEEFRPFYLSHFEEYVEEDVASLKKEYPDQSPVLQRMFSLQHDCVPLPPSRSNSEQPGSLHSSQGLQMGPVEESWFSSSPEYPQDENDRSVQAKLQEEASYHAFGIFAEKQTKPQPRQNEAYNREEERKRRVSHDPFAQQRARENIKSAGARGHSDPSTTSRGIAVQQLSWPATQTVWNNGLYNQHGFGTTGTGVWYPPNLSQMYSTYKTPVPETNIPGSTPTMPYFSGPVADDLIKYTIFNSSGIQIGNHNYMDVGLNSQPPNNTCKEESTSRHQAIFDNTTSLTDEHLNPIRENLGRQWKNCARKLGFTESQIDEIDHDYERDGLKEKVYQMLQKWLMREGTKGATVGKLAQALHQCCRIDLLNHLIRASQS
Description: RIPK1 autophosphorylation (pS166) by Western blot in MEFs stimulated with hTNF + TAK1i + zVAD.fmk. The following applies: immortalised MEFs, 30 min pretreatment with zVAD.fmk 50 μM, TAK1i 1 μM and compound, hTNF 20 ng/ml for 2.5 h, read-out: RIPK1 inhibition (IC50 estimated from a Western blot). The class given is cell-based. The procedure:
MEFs were seeded in 6-well plates at a density of 300.000 cells/well in 2 mL. The next day, the cells were suspended in 1 mL of medium and pre-treated for 30 min with the indicated compounds at 1/5 dilutions series for PERK ranging from 5 to 0.04 µM and 1 μg/mL of Tm followed by 4 h treatment with 20 ng/mL of hTNF. For RIPK1, the cells were pre-treated at 1/10 dilutions series ranging from 10 to 0.01 nM, 50 µM zVAD.fmk and 1 µM TAKi before stimulation with 20 ng/mL of hTNF for 2.5 h. Then, the cells were washed two times with 1 mL of ice-cold PBS before lysis in 0.2 mL of Laemmli buffer 1x (10% (w/v) SDS, 50% glycerol, 0.5% bromophenol blue, 250 mM Tris–HCl pH 6.8) and 250 mM of dithiothreitol (DTT). The cell lysate was then collected and boiled at 95 °C for 10min and stored at −20°C. Proteins expression was later monitored by immunoblotting.
Activation of PERK was induced by stimulation of the cells with Tunicamycin, as previsouly reported ([Bull and Thiede, 2012]). More precisely, the immortalised MEFs were pre-incubated for 30 min with the analogues 18–34 at different concentrations (0.04, 0.2, 1, and 5 µM) prior to 4 h stimulation with Tunicamycin (1 μg/mL). […] Their activities were evaluated by comparing the intensity of the signal to unstimulated MEFs (considered as zero phosphorylation) and Tunicamycin stimulated cells (considered as 100% PERK phosphorylation). The 12 compounds (18–20, 22–29 and 34) that had lost their inhibitory capacity on PERK were then tested for their ability to inhibit RIPK1 as shown in Figures 6A–H. Activation and autophosphorylation of RIPK1 was induced by stimulating the cells with TNF in the presence of TAK1 inhibitor and of the pan-caspases inhibitor zVAD.fmk, a well established necroptotic trigger ([Vanlangenakker et al., 2011]). The MEFs were pre-incubated for 30 min with the different compounds (0.01 nM–1000 nM) and then stimulated with human TNF (20 ng/mL) for 2.5 h. Similar to the PERK assessment, IC50 values for RIPK1 inhibition were estimated as a range of concentrations, and are reported in Table 1. These experiments provide an estimation of the specificity of our analogues against PERK and RIPK1 in comparison to the benchmark GSK’157 already reported as a potent PERK and RIPK1 inhibitor.

Another test concerns immortalized MEFs. Description: RIPK1 kinase-dependent necroptosis (hTNF + zVAD.fmk) in MEFs, Sytox Green.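 Note: cell death taken as background-corrected Sytox Green fluorescence relative to the maximal signal of cells fully permeabilized with 0.1% Triton X-100.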 The class given is cell-based, mouse. The following applies: Mus musculus, 24 h.
Another test relates to MEFs. Put plainly: RIPK1 kinase-dependent apoptosis (hTNF + TAK1i) in MEFs, Sytox Green. The note with it: Mus musculus, TAK1i + hTNF (100 pg/mL). It is filed as cell-based. From the text: In MEFs, TNF together with the pan caspases inhibitor zVAD.fmk induces RIPK1-dependent necroptosis while TNF together with TAK1 inhibitor induces RIPK1 kinase-dependent apoptosis. We also included the conditions selected for the Western blot experiments, where necroptosis was induced by the combination of hTNF, zVAD.fmk and TAK1 inhibitor.

Molecules are shown by their SMILES. Read-outs that look alike come from different tables or passages of the source.

Description for immortalized MEFs: In brief, the cells were seeded in duplicate at 10,000 cells per well in a 96-well adherent plate and incubated overnight at 37°C with 5% CO2. […] All the compound stock solutions were prepared in DMSO at 200 µM concentration. After stimulating the cells with human TNF at 20 ng/mL the plate was transferred to the incubator. […] The cell death was calculated by subtracting the background fluorescence from the induced Sytox Green fluorescence and by dividing the obtained result by the maximal fluorescence (minus the background fluorescence) obtained by permeabilization of the cells by using Triton X-100 at a final concentration of 0.1%. Curves were plotted in GraphPad 9 for the IC50 calculation.
Consequently, the compounds were evaluated for their potential protection of RIPK1-mediated necroptosis following human TNF stimulation.

As for `Cn1cc(-c2ccc3c(c2F)CCN3C(=O)Cc2ccc(C(F)(F)F)cn2)c2c(N)ncnc21` [Compound 22], the IC50 was 1 to 10 nM at RIPK1; 2.9 nM in the test on immortalized MEFs (immortalized MEFs, zVAD-fmk 50 μM + hTNF 20 ng/ml, Sytox Green at 24 h, Table 1 series, read-out: IC50 necroptosis); 1.06 nM in the test with immortalized MEFs (MEFs, hTNF + zVAD.fmk (20 ng/mL), Table 2, read-out: Necroptosis hTNF + zVAD.fmk MEFs IC50); 3.3 nM with MEFs.

The record behind these values is article PMC10119423, “From PERK to RIPK1: Design, synthesis and evaluation of novel potent and selective necroptosis inhibitors” (Frontiers in Chemistry, 2023).
